pIC50: −log10 of the molar value.
Molecular target: E. coli RNA polymerase β subunit (wild-type) (Escherichia coli, UniProt P0A8V2)
Assay: coupled cell-free synthesis of RNAP holoenzyme with firefly luciferase reporter
Type: biochemical

E. coli RNA polymerase β subunit (wild-type), sequence (P0A8V2 whole entry): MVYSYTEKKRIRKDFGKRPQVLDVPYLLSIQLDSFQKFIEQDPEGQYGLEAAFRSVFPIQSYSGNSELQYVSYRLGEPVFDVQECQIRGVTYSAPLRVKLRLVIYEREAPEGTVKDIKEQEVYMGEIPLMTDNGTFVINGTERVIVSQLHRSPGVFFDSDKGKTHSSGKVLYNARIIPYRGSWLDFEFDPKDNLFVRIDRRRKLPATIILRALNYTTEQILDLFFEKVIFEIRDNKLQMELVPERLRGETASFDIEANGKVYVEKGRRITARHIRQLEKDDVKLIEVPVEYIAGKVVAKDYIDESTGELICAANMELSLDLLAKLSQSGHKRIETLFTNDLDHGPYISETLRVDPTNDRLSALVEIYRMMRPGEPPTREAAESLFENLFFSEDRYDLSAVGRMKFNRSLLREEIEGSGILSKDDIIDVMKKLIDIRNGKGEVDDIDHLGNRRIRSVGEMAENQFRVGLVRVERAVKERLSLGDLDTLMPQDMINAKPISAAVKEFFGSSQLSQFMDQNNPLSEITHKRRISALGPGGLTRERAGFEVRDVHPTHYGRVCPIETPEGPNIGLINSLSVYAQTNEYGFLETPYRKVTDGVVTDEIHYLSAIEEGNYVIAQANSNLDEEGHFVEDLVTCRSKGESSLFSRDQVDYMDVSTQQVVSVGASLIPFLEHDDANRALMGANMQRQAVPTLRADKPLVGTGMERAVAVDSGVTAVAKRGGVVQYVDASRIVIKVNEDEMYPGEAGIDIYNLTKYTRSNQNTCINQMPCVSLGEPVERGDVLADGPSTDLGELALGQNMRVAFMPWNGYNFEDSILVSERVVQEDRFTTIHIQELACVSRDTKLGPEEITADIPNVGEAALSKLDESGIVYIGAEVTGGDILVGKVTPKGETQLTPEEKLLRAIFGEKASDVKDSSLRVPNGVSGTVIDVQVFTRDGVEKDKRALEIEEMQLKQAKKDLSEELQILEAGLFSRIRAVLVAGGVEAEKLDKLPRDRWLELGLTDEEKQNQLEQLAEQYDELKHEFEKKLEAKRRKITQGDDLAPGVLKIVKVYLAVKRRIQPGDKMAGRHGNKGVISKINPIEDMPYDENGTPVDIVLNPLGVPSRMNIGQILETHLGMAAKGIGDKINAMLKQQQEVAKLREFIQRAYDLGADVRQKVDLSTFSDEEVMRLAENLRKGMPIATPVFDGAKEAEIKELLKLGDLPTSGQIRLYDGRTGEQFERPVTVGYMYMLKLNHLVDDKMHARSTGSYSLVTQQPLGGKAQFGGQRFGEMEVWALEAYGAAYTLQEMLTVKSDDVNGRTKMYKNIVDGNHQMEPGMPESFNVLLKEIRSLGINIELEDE
E. coli RNA polymerase β subunit (wild-type), sequence (P0A7Z4 whole entry partner): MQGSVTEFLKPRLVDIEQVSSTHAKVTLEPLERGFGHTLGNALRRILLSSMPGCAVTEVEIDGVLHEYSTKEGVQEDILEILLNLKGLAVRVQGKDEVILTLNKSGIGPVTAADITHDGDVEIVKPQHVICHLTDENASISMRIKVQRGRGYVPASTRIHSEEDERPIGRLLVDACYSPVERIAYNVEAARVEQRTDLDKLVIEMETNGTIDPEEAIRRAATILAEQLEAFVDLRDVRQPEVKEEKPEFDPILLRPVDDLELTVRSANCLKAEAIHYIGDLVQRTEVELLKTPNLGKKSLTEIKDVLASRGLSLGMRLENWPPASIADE
E. coli RNA polymerase β subunit (wild-type), sequence (P0A8T7 whole entry partner): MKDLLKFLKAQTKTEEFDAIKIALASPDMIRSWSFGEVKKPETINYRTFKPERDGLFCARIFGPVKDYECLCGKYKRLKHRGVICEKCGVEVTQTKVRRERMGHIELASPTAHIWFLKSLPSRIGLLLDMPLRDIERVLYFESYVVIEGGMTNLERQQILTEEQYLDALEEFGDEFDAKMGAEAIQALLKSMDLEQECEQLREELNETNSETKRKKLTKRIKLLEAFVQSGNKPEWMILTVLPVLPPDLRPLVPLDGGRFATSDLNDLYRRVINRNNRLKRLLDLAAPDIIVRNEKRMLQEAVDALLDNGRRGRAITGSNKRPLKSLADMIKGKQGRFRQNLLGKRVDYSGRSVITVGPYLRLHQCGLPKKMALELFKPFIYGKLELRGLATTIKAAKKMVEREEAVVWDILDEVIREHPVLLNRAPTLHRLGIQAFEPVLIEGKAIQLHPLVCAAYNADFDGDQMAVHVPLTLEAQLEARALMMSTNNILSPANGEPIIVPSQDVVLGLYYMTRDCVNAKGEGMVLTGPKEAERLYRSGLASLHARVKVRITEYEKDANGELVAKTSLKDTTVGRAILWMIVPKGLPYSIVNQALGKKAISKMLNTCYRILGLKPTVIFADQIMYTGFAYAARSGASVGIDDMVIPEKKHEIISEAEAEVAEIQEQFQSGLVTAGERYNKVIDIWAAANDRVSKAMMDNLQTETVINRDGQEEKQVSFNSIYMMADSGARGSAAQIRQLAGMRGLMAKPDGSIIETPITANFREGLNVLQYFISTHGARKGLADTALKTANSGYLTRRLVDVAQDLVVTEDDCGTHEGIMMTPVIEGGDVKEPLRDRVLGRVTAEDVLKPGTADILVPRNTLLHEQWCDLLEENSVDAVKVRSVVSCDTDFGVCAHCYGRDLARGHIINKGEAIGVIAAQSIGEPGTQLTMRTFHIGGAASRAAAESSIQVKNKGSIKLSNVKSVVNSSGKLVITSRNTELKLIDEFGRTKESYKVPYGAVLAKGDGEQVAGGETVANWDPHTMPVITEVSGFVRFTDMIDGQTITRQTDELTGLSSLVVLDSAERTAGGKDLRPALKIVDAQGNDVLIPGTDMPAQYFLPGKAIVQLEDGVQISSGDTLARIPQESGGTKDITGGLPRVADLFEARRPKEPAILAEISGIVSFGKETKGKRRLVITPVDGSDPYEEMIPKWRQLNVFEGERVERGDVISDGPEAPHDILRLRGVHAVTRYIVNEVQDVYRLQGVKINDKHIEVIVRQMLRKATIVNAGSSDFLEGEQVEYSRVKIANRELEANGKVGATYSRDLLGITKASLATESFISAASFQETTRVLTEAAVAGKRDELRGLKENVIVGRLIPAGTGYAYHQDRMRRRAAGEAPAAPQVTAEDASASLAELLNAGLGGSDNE
E. coli RNA polymerase β subunit (wild-type), sequence (P0A800 2-91 partner): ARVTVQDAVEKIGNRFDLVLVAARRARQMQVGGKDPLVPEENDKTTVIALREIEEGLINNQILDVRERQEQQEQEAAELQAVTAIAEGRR
E. coli RNA polymerase β subunit (wild-type), sequence (P0AGB3 whole entry partner): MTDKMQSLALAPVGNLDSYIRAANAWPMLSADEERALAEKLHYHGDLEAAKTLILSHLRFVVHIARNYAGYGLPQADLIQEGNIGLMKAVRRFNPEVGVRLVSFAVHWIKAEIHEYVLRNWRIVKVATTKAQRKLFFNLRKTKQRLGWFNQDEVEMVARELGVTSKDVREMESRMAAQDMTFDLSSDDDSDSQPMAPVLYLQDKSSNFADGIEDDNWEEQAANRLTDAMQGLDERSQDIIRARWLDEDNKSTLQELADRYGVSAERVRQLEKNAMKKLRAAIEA

CO[C@H]1/C=C/O[C@@]2(C)Oc3c(C)c(O)c4c(O)c(c(/C=N/N5CCN(C)CC5)c(O)c4c3C2=O)NC(=O)/C(C)=C\C=C\[C@H](C)[C@H](O)[C@@H](C)[C@@H](O)[C@@H](C)[C@H](OC(C)=O)[C@@H]1C [rifampicin]
pIC50: ~6.70
